Source: US20060189512A1, “Compositions containing botanical extracts rich in phlorizin and methods for using such compositions in blood glucose modification and to affect aging” (priority 2005, published 2006)

Target: T1, SIRT1 (histone deacetylase) (Homo sapiens, UniProt Q96EB6)
T1 construct: purchased BIOMOL Research Laboratories, Inc., Plymouth Meeting, Pa
T1 sequence (Q96EB6 1-747): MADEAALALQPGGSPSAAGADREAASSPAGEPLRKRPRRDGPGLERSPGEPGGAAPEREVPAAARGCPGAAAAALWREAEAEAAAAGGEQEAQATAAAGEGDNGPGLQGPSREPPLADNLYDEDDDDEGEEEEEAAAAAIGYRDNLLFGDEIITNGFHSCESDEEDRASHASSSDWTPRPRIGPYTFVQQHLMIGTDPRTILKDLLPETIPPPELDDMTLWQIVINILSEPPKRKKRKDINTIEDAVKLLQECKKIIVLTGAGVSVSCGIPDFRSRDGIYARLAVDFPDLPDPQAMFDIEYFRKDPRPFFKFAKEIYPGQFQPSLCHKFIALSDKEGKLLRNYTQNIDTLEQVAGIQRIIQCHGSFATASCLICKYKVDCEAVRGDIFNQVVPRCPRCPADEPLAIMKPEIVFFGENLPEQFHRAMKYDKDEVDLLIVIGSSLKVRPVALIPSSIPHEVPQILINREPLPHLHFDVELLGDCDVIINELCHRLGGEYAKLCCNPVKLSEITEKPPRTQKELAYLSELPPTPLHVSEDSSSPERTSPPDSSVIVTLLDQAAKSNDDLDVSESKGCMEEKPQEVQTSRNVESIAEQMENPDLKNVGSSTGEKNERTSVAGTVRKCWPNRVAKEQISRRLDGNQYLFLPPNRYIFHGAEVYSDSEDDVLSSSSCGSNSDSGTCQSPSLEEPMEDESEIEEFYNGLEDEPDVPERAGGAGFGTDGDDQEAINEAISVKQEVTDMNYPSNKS
Experiment: Cell-based fluorescence deacetylase assay, SIRT1 Fluorimetric Drug Discovery Kit (BIOMOL)
Text: A cell-based fluorescence deacetylase assay, SIRT1 Fluorimetric Drug Discovery Kit, obtained from BIOMOL Research Laboratories, Inc., Plymouth Meeting, Pa. was used to measure the effects of various polyphenols in apple extract on histone deacetylase activity.

Histone deacetylase activity (concentration 100 micromolar) [× baseline] | Molecule | Histone deacetylase activity (concentration 500 micromolar)
– | O=c1c(O)c(-c2ccc(O)c(O)c2)oc2cc(O)cc(O)c12 [Quercetin] | 4.59 × baseline
– | Catechins | 1.26-1.53 × baseline
1.36 | O=C(CCc1ccc(O)cc1)c1c(O)cc(O)cc1O[C@@H]1O[C@H](CO)[C@@H](O)[C@H](O)[C@H]1O [Phlorizin] | –
– | O=C(CCc1ccc(O)cc1)c1c(O)cc(O)cc1O [Phloretin] | 1.94 × baseline
